Laboratory results: patent US20230138395A1, “PHARMACEUTICAL COMPOSITIONS OF A THERAPEUTIC POLYENE MACROLIDE AND METHODS OF THEIR USE” (priority 2020, published 2023)
Converted amounts (≈) assume the structure as drawn. “And” between values parts separate entries of the source, which are not always exact repeats. Equal entries are not always repeated. Marks after values point to notes of the source that are not given here.

Columns and labels:
[1] = system: all Aspergillus strains tested; assay: MFC determination, summary; assay type: cell-based
[2] = system: individual Aspergillus spp. (Table 15, species not named); assay: MIC testing (CLSI M38-A2), Table 15; assay type: cell-based; settings: Aspergillus sp. of Table 15, caspofungin read as MEC
Penicillium strains [3] = assay: MFC determination; assay type: cell-based, Penicillium spp.
[4] = system: Fusarium strains (Table 18); assay: MFC determination, Table 18; assay type: cell-based, Fusarium spp.
Cr. neoformans strains = assay: MIC testing (CLSI M27-A3, YNB, 72 h); assay type: cell-based, Cryptococcus neoformans
Candida albicans [5] = assay: MIC testing (CLSI M27-A3); assay type: cell-based; set-up: MIC: unit not given beside the values; settings: for MIC Range: in µg/mL
C. parapsilosis = assay: MFC determination; assay type: cell-based
[6] = system: individual Aspergillus spp. (Table 15, species not named); assay: MFC determination, Table 15; assay type: cell-based; settings: Aspergillus sp. of Table 15
[7] = system: individual Aspergillus spp. (Table 13, species not given); assay: MFC determination, Table 13; assay type: cell-based; settings: Aspergillus sp. of Table 13
[8] = system: Fusarium strains (Table 18); assay: MIC testing (CLSI M38-A2), Table 18; assay type: cell-based, Fusarium spp.
Candida albicans [9] = assay: MFC determination; assay type: cell-based
all Candida strains = assay: MFC determination, summary; assay type: cell-based
A. fumigatus AF91 [10] = assay: In vitro activity (MIC) against the infecting strain, Example 17; assay type: cell-based, Aspergillus fumigatus; settings: Aspergillus fumigatus, read-out: MIC
Procedure: Minimum Inhibitory Concentration: MIC testing was performed according to the Clinical and Laboratory Standards Institute (CLSI) M27-A3 and M38-A2 standards for the susceptibility testing of yeasts and filamentous fungi, respectively (Cryptococcus isolates were incubated for 72 h). For yeast strains, the incubation temperature and time were 35° C. and 24-48 h, respectively, and the inoculum size was 0.5-2.5×10^3 CFU/ml. For filamentous strains, the inoculum size was 0.4-5×10^4 CFU/ml, and the incubation time was strain and drug specific. RPMI 1640 was the test medium throughout, with the exception of the use of YNB for Cryptococcus. Inhibition endpoints for compound 1A were recorded at 50% and 100% after both 24 h and 48 h incubation; caspofungin results against Aspergillus strains were read as minimum effective concentrations (MEC), the lowest concentration that leads to small, rounded, compact growth as compared to the confluent growth of the control.

A. fumigatus AF91 [11] = assay: In vitro activity (MFC) against the infecting strain, Example 17; assay type: cell-based, Aspergillus fumigatus; settings: Aspergillus fumigatus, read-out: MFC
Procedure: Minimum Fungicidal Concentration: MFC determinations were performed according to the modifications previously described by Canton et al., Diagn. Microbiol. Infect. Dis., 45:203-206, 2003, and Ghannoum and Isham, Infectious Diseases in Clinical Practice, 15(4):250-253, 2007.
Specifically, the total contents of each clear well from the MIC assay were subcultured onto potato dextrose agar. To avoid antifungal carryover, the aliquots were allowed to soak into the agar and then were streaked for isolation once dry, thus removing the cells from the drug source. Fungicidal activity is defined as ≥99.9% reduction in the number of colony forming units (CFU)/ml from the starting inoculum count, while fungistatic activity is defined as <99.9% reduction. […] MIC and MFC values are considered to be equivalent if they are within 2 dilutions.

[12] = system: individual Aspergillus spp. (Table 14, species not named); assay: MIC testing (CLSI M38-A2), Table 14; assay type: cell-based; settings: Aspergillus sp. of Table 14, caspofungin read as MEC
C. krusei strains [13] = assay: MFC determination; assay type: cell-based
C. albicans SC5314 = assay: In vitro activity (MIC) against the infecting strain, Example 18; assay type: cell-based, Candida albicans; settings: Candida albicans, read-out: MIC
C. krusei strains [14] = assay: MIC testing (CLSI M27-A3); assay type: cell-based
[15] = system: Aspergillus fumigatus AF91; assay: Disseminated Aspergillosis in immunocompromised murine model (CD-1 mice): tissue fungal burden; settings: 7 days
Penicillium strains [16] = assay: MIC testing (CLSI M38-A2); assay type: cell-based, Penicillium spp.
Candida albicans SC5314 = assay: Disseminated candidiasis in immunocompromised murine model (BALB/c mice): tissue fungal burden; assay type: in vivo; settings: 7 days
[17] = system: Blastomyces dermatitidis, Coccidioides immitis, and Histoplasma capsulatum strains; assay type: cell-based; settings: dimorphic fungal isolates; in µg/mL
[18] = individual C. albicans strain with elevated MICs to non-polyene comparators (Table 22)
[19] = individual C. krusei strain with elevated MICs to non-polyene comparators (Table 22)
[20] = Experiment II, 0.5 mg/kg i.v. daily
[21] = Experiment II, 1.0 mg/kg i.v. daily

## C[C@@H]1[C@H](O)[C@@H](C)/C=C/C=C/C=C/C=C/C=C/C=C/C=C/[C@H](O[C@@H]2O[C@H](C)[C@@H](O)[C@H](N)[C@@H]2O)C[C@@H]2O[C@](O)(C[C@@H](O)[C@H](O)CC[C@@H](O)C[C@@H](O)C[C@@H](O)CC(=O)O[C@H]1C)C[C@H](O)[C@H]2C [Compound 1A]
[1]; kills 50% of strains
  MFC50: 4 µg/mL (≈ 4.47 µM)
[1]; kills 90% of strains
  MFC90: > 4 µg/mL
[2]; in µg/mL
  MIC Range: 0.5-4
[2]; inhibits 50% of strains
  MIC50: 2 µg/mL (≈ 2.24 µM)
[2]; inhibits 90% of strains
  MIC90: 4 µg/mL (≈ 4.47 µM)
Penicillium strains [3]; kills 50% of strains
  MFC50: 2 µg/mL (≈ 2.24 µM)
Penicillium strains [3]; kills 90% of strains
  MFC90: 4 µg/mL (≈ 4.47 µM)
[4]; kills 50% of strains
  MFC50: 2 µg/mL (≈ 2.24 µM)
[4]; kills 90% of strains
  MFC90: > 4 µg/mL
Cr. neoformans strains; Cr. neoformans strains, 72 h, in µg/mL
  MIC Range: 0.5-2
Cr. neoformans strains; Cr. neoformans, inhibits 50% of strains
  MIC50: 1 µg/mL (≈ 1.12 µM)
Cr. neoformans strains; Cr. neoformans, inhibits 90% of strains
  MIC90: 1 µg/mL (≈ 1.12 µM)
Candida albicans [5]; Fluconazole-resistant C. albicans n = 7
  MIC Range: 1-2
Candida albicans [5]; Fluconazole-susceptible C. albicans n = 13
  MIC Range: 0.125-1
Candida albicans [5]; Fluconazole-susceptible C. albicans n = 13, inhibits 50% of strains
  MIC50: 0.5 µg/mL (≈ 0.559 µM)
Candida albicans [5]; Fluconazole-susceptible C. albicans n = 13, inhibits 90% of strains
  MIC90: 1 µg/mL (≈ 1.12 µM)
Candida albicans [5]; [18]
  MIC: 1 (6×) and 2
C. parapsilosis; C. parapsilosis strains, in µg/mL
  MFC Range: 0.25-2
C. parapsilosis; C. parapsilosis, kills 50% of strains
  MFC50: 0.5 µg/mL (≈ 0.559 µM)
C. parapsilosis; C. parapsilosis, kills 90% of strains
  MFC90: 2 µg/mL (≈ 2.24 µM)
C. parapsilosis; individual C. parapsilosis strain with elevated MICs to non-polyene comparators (Table 22)
  MFC: 0.5 (2×) and 1
[6]; kills 50% of strains
  MFC50: > 4 µg/mL
[6]; kills 90% of strains
  MFC90: > 4 µg/mL
[7]; kills 50% of strains
  MFC50: 2 µg/mL (≈ 2.24 µM)
[7]; kills 90% of strains
  MFC90: > 4 µg/mL
[8]; in µg/mL
  MIC Range: 1-4
[8]; inhibits 50% of strains
  MIC50: 2 µg/mL (≈ 2.24 µM)
[8]; inhibits 90% of strains
  MIC90: 4 µg/mL (≈ 4.47 µM)
Candida albicans [9]; Fluconazole-susceptible C. albicans n = 13, in µg/mL
  MFC Range: 0.125-1
Candida albicans [9]; Fluconazole-susceptible C. albicans n = 13, kills 50% of strains
  MFC50: 0.5 µg/mL (≈ 0.559 µM)
Candida albicans [9]; Fluconazole-susceptible C. albicans n = 13, kills 90% of strains
  MFC90: 1 µg/mL (≈ 1.12 µM)
Candida albicans [9]; [18]
  MFC: 1 (5×) and >4 and 2
All Candida strains; in µg/mL
  MFC Range: 0.125-16
All Candida strains; kills 50% of strains
  MFC50: 1 µg/mL (≈ 1.12 µM)
All Candida strains; kills 90% of strains
  MFC90: 2 µg/mL (≈ 2.24 µM)
A. fumigatus AF91 [10]
  MIC: 2 µg/mL (≈ 2.24 µM)
A. fumigatus AF91 [11]
  MFC: 2 µg/mL (≈ 2.24 µM)
[12]; in µg/mL
  MIC Range: 1-2
[12]; inhibits 50% of strains
  MIC50: 2 µg/mL (≈ 2.24 µM)
[12]; inhibits 90% of strains
  MIC90: 2 µg/mL (≈ 2.24 µM)
C. krusei strains [13]; C. krusei strains, in µg/mL
  MFC Range: 0.5-2
C. krusei strains [13]; C. krusei, kills 50% of strains
  MFC50: 1 µg/mL (≈ 1.12 µM)
C. krusei strains [13]; C. krusei, kills 90% of strains
  MFC90: 2 µg/mL (≈ 2.24 µM)
C. krusei strains [13]; [19]
  MFC: 2 µg/mL (≈ 2.24 µM)
C. albicans SC5314
  MIC: 0.5 µg/mL (≈ 0.559 µM)
C. krusei strains [14]; C. krusei strains, in µg/mL
  MIC Range: 0.5-2
C. krusei strains [14]; C. krusei, inhibits 50% of strains
  MIC50: 1 µg/mL (≈ 1.12 µM)
C. krusei strains [14]; C. krusei, inhibits 90% of strains
  MIC90: 2 µg/mL (≈ 2.24 µM)
C. krusei strains [14]; [19]
  MIC: 0.5 µg/mL (≈ 0.559 µM)
[15]; Experiment I, 0.5 mg/kg i.v.
  Kidney tissue fungal burden, Mean log CFUs ± the standard deviation: 3.16 ± 0.40 log CFUs
  Lung tissue fungal burden, Mean log CFUs ± the standard deviation: 3.46 ± 0.49 log CFUs
[15]; Experiment I, 1.0 mg/kg i.v.
  Kidney tissue fungal burden, Mean log CFUs ± the standard deviation: 0.51 ± 1.02 log CFUs
  Lung tissue fungal burden, Mean log CFUs ± the standard deviation: 0.55 ± 1.10 log CFUs
[15]; [20]
  Kidney tissue fungal burden, Mean log CFUs ± the standard deviation: 2.93 ± 0.73 log CFUs
  Lung tissue fungal burden, Mean log CFUs ± the standard deviation: 2.75 ± 0.93 log CFUs
[15]; [21]
  Kidney tissue fungal burden, Mean log CFUs ± the standard deviation: 1.16 ± 1.10 log CFUs
  Lung tissue fungal burden, Mean log CFUs ± the standard deviation: 1.17 ± 1.15 log CFUs
Penicillium strains [16]; Penicillium strains, in µg/mL
  MIC Range: 0.5-2
Penicillium strains [16]; Penicillium, inhibits 50% of strains
  MIC50: 2 µg/mL (≈ 2.24 µM)
Penicillium strains [16]; Penicillium, inhibits 90% of strains
  MIC90: 2 µg/mL (≈ 2.24 µM)
Candida albicans SC5314; Experiment I, 0.35 mg/kg i.v.
  Brain tissue fungal burden, Mean log CFUs ± the standard deviation: 2.92 ± 1.21 log CFUs
  Kidney tissue fungal burden, Mean log CFUs ± the standard deviation: 3.16 ± 1.41 log CFUs
Candida albicans SC5314; Experiment I, 0.7 mg/kg i.v.
  Brain tissue fungal burden, Mean log CFUs ± the standard deviation: 3.59 ± 1.20 log CFUs
  Kidney tissue fungal burden, Mean log CFUs ± the standard deviation: 2.66 ± 2.11 log CFUs
Candida albicans SC5314; Experiment II, 0.35 mg/kg i.v.
  Brain tissue fungal burden, Mean log CFUs ± the standard deviation: 3.55 ± 1.26 log CFUs
  Kidney tissue fungal burden, Mean log CFUs ± the standard deviation: 3.53 ± 0.63 log CFUs
Candida albicans SC5314; Experiment II, 0.7 mg/kg i.v.
  Brain tissue fungal burden, Mean log CFUs ± the standard deviation: 2.97 ± 2.04 log CFUs
  Kidney tissue fungal burden, Mean log CFUs ± the standard deviation: 2.99 ± 1.05^a,b log CFUs
[17]
  MIC Range: <0.03-0.25
